From BigSolDB 2.1

C=CC(=O)N1CCC[C@@H](n2nc(-c3ccc(Oc4ccccc4)cc3)c3c(N)ncnc32)C1
solubility (mole fraction)
Conditions | 298.15 K | 303.15 K | 308.15 K | 313.15 K | 323.15 K
in transcutol | 0.0267 | 0.0288 | 0.0318 | 0.0341 | 0.0392
in water | 1.43e-07 | 2.21e-07 | 3.11e-07 | 4.13e-07 | 7.69e-07
